Measured values: publication PMC5218480 (PLoS ONE, 2017)

Test system: MV-4-11 cells
Test: Gene expression microarray analysis (Affymetrix PrimeView) and GSEA
Format: cell-based, human
Design: RFU PODN (11730768_x_at) / Fold change /veh PODN (11730768_x_at) / RFU LINC00158 (11744669_a_at) / Fold change /veh LINC00158 (11744669_a_at) / RFU DUSP10 (11751237_a_at) / Fold change /veh DUSP10 (11751237_a_at) / RFU ID3 (11757404_x_at) / Fold change /veh ID3 (11757404_x_at) / RFU PLEKHG5 (11737974_s_at) / Fold change /veh PLEKHG5 (11737974_s_at) / RFU LRRC4B (11730491_at) / Fold change /veh LRRC4B (11730491_at) / RFU GIMAP4 (11747438_a_at) / Fold change /veh GIMAP4 (11747438_a_at) / RFU KRT8 (11758183_x_at) / Fold change /veh KRT8 (11758183_x_at) / RFU CNN1 (11734310_a_at) / Fold change /veh CNN1 (11734310_a_at) / RFU VPS37D (11726825_at) / Fold change /veh VPS37D (11726825_at) / RFU C10orf10 (11716522_x_at) / Fold change /veh C10orf10 (11716522_x_at) / RFU KIR2DL2 /// KIR2DL4 /// KIR2DL5A /// KIR2DL5B /// KIR2DS1 /// KIR2DS2 /// KIR2DS3 /// KIR2DS4 /// KIR3DL3 /// KIR3DL3 /// KIR3DS1 (11738374_at) / Fold change /veh KIR2DL2 /// KIR2DL4 /// KIR2DL5A /// KIR2DL5B /// KIR2DS1 /// KIR2DS2 /// KIR2DS3 /// KIR2DS4 /// KIR3DL3 /// KIR3DL3 /// KIR3DS1 (11738374_at) / RFU C1QL1 (11718748_at) / Fold change /veh C1QL1 (11718748_at) / RFU TMPRSS4 (11747572_a_at) / Fold change /veh TMPRSS4 (11747572_a_at) / RFU HAMP (11756126_x_at) / Fold change /veh HAMP (11756126_x_at) / RFU RNFT2 (11725882_a_at) / Fold change /veh RNFT2 (11725882_a_at) / RFU NR4A2 (11747474_a_at) / Fold change /veh NR4A2 (11747474_a_at) / RFU ABCC12 (11746883_a_at) / Fold change /veh ABCC12 (11746883_a_at) / RFU TMEM136 (11760407_x_at) / Fold change /veh TMEM136 (11760407_x_at) / RFU CLDN22 /// WWC2 (11732394_at) / Fold change /veh CLDN22 /// WWC2 (11732394_at) / RFU HLA-DPB1 (11760878_x_at) / Fold change /veh HLA-DPB1 (11760878_x_at) / RFU SPINT1 (11716480_a_at) / Fold change /veh SPINT1 (11716480_a_at) / RFU GAP43 (11754022_s_at) / Fold change /veh GAP43 (11754022_s_at) / RFU A4GNT (11735810_at) / Fold change /veh A4GNT (11735810_at) / RFU PRB3 (11715151_x_at) / Fold change /veh PRB3 (11715151_x_at) / RFU TUBB4B (11761932_at) / Fold change /veh TUBB4B (11761932_at) / RFU CAPN14 (11732068_a_at) / Fold change /veh CAPN14 (11732068_a_at) / RFU TMCC2 (11721928_a_at) / Fold change /veh TMCC2 (11721928_a_at) / RFU IRGQ (11745062_a_at) / Fold change /veh IRGQ (11745062_a_at) / RFU FAM174B (11720279_a_at) / Fold change /veh FAM174B (11720279_a_at) / RFU TMPRSS4 (11748680_a_at) / Fold change /veh TMPRSS4 (11748680_a_at) / RFU FAM212B (11763350_a_at) / Fold change /veh FAM212B (11763350_a_at) / RFU PLEKHG5 (11743358_a_at) / Fold change /veh PLEKHG5 (11743358_a_at) / RFU ZSCAN30 (11745921_a_at) / Fold change /veh ZSCAN30 (11745921_a_at) / RFU CMKLR1 (11741424_a_at) / Fold change /veh CMKLR1 (11741424_a_at) / RFU LOC101060620 /// MAPK8IP1 (11723275_at) / Fold change /veh LOC101060620 /// MAPK8IP1 (11723275_at) / RFU SPTSSB (11747773_x_at) / Fold change /veh SPTSSB (11747773_x_at) / RFU PRSS12 (11739890_at) / Fold change /veh PRSS12 (11739890_at) / RFU BIN1 (11741810_x_at) / Fold change /veh BIN1 (11741810_x_at) / RFU WNT11 (11732464_a_at) / Fold change /veh WNT11 (11732464_a_at) / RFU C10orf10 (11716521_a_at) / Fold change /veh C10orf10 (11716521_a_at) / RFU C5orf56 (11738089_at) / Fold change /veh C5orf56 (11738089_at) / RFU CYB561 (11721691_x_at) / Fold change /veh CYB561 (11721691_x_at) / RFU ANKRD19P (11752326_a_at) / Fold change /veh ANKRD19P (11752326_a_at) / RFU OR2T12 /// OR2T33 /// OR2T8 (11738714_s_at) / Fold change /veh OR2T12 /// OR2T33 /// OR2T8 (11738714_s_at) / RFU VCAN (11748164_a_at) / Fold change /veh VCAN (11748164_a_at) / RFU JSRP1 (11732532_at) / Fold change /veh JSRP1 (11732532_at) / RFU KRTAP10-11 (11738290_x_at) / Fold change /veh KRTAP10-11 (11738290_x_at) / RFU MYO3A (11730013_a_at) / Fold change /veh MYO3A (11730013_a_at) / RFU EBF3 (11725865_a_at) / Fold change /veh EBF3 (11725865_a_at) / RFU CAMK2N1 (11719241_x_at) / Fold change /veh CAMK2N1 (11719241_x_at) / RFU C5orf56 (11738088_a_at) / Fold change /veh C5orf56 (11738088_a_at) / RFU OLFML3 (11715873_a_at) / Fold change /veh OLFML3 (11715873_a_at) / RFU LOC100653217 /// NTM (11731650_a_at) / Fold change /veh LOC100653217 /// NTM (11731650_a_at) / RFU MAPK11 (11762145_a_at) / Fold change /veh MAPK11 (11762145_a_at) / RFU FIZ1 (11724087_x_at) / Fold change /veh FIZ1 (11724087_x_at) / RFU OASL (11726364_x_at) / Fold change /veh OASL (11726364_x_at) / RFU SOX15 (11748057_x_at) / Fold change /veh SOX15 (11748057_x_at) / RFU CD79A (11719716_a_at) / Fold change /veh CD79A (11719716_a_at) / RFU HIST1H1D (11736915_at) / Fold change /veh HIST1H1D (11736915_at) / RFU CASKIN2 (11723855_a_at) / Fold change /veh CASKIN2 (11723855_a_at) / RFU LOC730098 (11760151_x_at) / Fold change /veh LOC730098 (11760151_x_at) / RFU OR4N2 (11742367_at) / Fold change /veh OR4N2 (11742367_at) / RFU PRRT2 (11749266_a_at) / Fold change /veh PRRT2 (11749266_a_at) / RFU SNX32 (11753110_a_at) / Fold change /veh SNX32 (11753110_a_at) / RFU CDHR5 (11726645_a_at) / Fold change /veh CDHR5 (11726645_a_at) / RFU RCAN1 (11760418_a_at) / Fold change /veh RCAN1 (11760418_a_at) / RFU FAM167A (11723789_a_at) / Fold change /veh FAM167A (11723789_a_at) / RFU FAM26E (11764081_at) / Fold change /veh FAM26E (11764081_at) / RFU ISYNA1 (11749810_s_at) / Fold change /veh ISYNA1 (11749810_s_at) / RFU ACY1 (11761880_at) / Fold change /veh ACY1 (11761880_at) / RFU 11764098_at / Fold change /veh 11764098_at / RFU SAMD14 (11745864_x_at) / Fold change /veh SAMD14 (11745864_x_at) / RFU NPB (11741838_a_at) / Fold change /veh NPB (11741838_a_at) / RFU TMPRSS6 (11731388_a_at) / Fold change /veh TMPRSS6 (11731388_a_at) / RFU KRTAP10-2 (11738614_at) / Fold change /veh KRTAP10-2 (11738614_at) / RFU ARHGAP8 /// PRR5-ARHGAP8 (11727945_x_at) / Fold change /veh ARHGAP8 /// PRR5-ARHGAP8 (11727945_x_at) / RFU KRTAP5-7 /// NADSYN1 (11734609_at) / Fold change /veh KRTAP5-7 /// NADSYN1 (11734609_at) / RFU RASL12 (11751679_a_at) / Fold change /veh RASL12 (11751679_a_at) / RFU CDKN2B (11736163_a_at) / Fold change /veh CDKN2B (11736163_a_at) / RFU PRF1 (11729649_at) / Fold change /veh PRF1 (11729649_at) / RFU, ZNF638 /// ZNF638-IT1 / Fold change vs veh, ZNF638 /// ZNF638-IT1 / RFU, PANK3 / Fold change vs veh, PANK3 / RFU, SH3YL1 / Fold change vs veh, SH3YL1 / RFU, ZEB2 / Fold change vs veh, ZEB2 / RFU, NRIP1 / Fold change vs veh, NRIP1 / RFU, PTTG1IP / Fold change vs veh, PTTG1IP / RFU, CAPN2 / Fold change vs veh, CAPN2 / RFU, MED14 / Fold change vs veh, MED14 / RFU, SNORA58 / Fold change vs veh, SNORA58 / RFU, C1orf63 / Fold change vs veh, C1orf63 / RFU, LRRFIP1 / Fold change vs veh, LRRFIP1 / RFU, NDUFAF7 / Fold change vs veh, NDUFAF7 / RFU, SLC12A2 / Fold change vs veh, SLC12A2 / RFU, IBTK / Fold change vs veh, IBTK / RFU, ESF1 / Fold change vs veh, ESF1 / Fold change vs veh, TMEM50B / RFU, TAOK1 / Fold change vs veh, TAOK1 / RFU, ACBD3 / Fold change vs veh, ACBD3 / RFU, TMA16 / Fold change vs veh, TMA16 / RFU, RWDD3 / Fold change vs veh, RWDD3 / RFU, BCAT1 / Fold change vs veh, BCAT1 / RFU, EDEM3 / Fold change vs veh, EDEM3 / RFU, TMEM33 / Fold change vs veh, TMEM33 / RFU, WDR75 / Fold change vs veh, WDR75 / RFU, AHCTF1 / Fold change vs veh, AHCTF1 / RFU, TFRC / Fold change vs veh, TFRC / RFU, ZDHHC17 / Fold change vs veh, ZDHHC17 / RFU, NOM1 / Fold change vs veh, NOM1 / RFU, ARL8B / Fold change vs veh, ARL8B / RFU, ZBTB11 / Fold change vs veh, ZBTB11 / RFU, TAMM41 / Fold change vs veh, TAMM41 / RFU, KIAA1704 /// LOC100996395 / Fold change vs veh, KIAA1704 /// LOC100996395 / RFU, ING1 / Fold change vs veh, ING1 / RFU, TRMT61B / Fold change vs veh, TRMT61B / RFU, FUBP3 / Fold change vs veh, FUBP3 / RFU, TP53 / Fold change vs veh, TP53 / RFU, TNKS2 / Fold change vs veh, TNKS2 / RFU, ZFP14 / Fold change vs veh, ZFP14 / RFU, ACTR2 / Fold change vs veh, ACTR2 / RFU, PPP3R1 / Fold change vs veh, PPP3R1 / RFU, PIK3R1 / Fold change vs veh, PIK3R1 / RFU, HNRNPA1 / Fold change vs veh, HNRNPA1 / RFU, RNF170 / Fold change vs veh, RNF170 / RFU, ZNF28 / Fold change vs veh, ZNF28 / RFU, RNGTT / Fold change vs veh, RNGTT / RFU, OGT / Fold change vs veh, OGT / RFU, BRD1 / Fold change vs veh, BRD1 / RFU, MARS / Fold change vs veh, MARS / RFU, ZNF655 / Fold change vs veh, ZNF655 / RFU, FAHD1 / Fold change vs veh, FAHD1 / RFU, BDP1 / Fold change vs veh, BDP1 / RFU, LRRCC1 / Fold change vs veh, LRRCC1 / RFU, ARID1A / Fold change vs veh, ARID1A / RFU, ZNF146 / Fold change vs veh, ZNF146 / RFU, ZNF330 / Fold change vs veh, ZNF330 / RFU, GPN3 / Fold change vs veh, GPN3 / RFU, C9orf123 / Fold change vs veh, C9orf123 / RFU, N4BP2L2 / Fold change vs veh, N4BP2L2 / RFU, ARFIP1 / Fold change vs veh, ARFIP1 / RFU, FAM179B / Fold change vs veh, FAM179B / RFU, BCL10 / Fold change vs veh, BCL10 / RFU, UHRF1BP1L / Fold change vs veh, UHRF1BP1L / RFU, BET1 / Fold change vs veh, BET1 / RFU, CNOT2 / Fold change vs veh, CNOT2 / RFU, ZNF268 / Fold change vs veh, ZNF268 / Fold change vs veh, ZNF507 / RFU, DGCR2 / Fold change vs veh, DGCR2 / RFU, WDSUB1 / Fold change vs veh, WDSUB1 / Fold change vs veh, HSP90B1 /// MIR3652 / RFU, ADSS / Fold change vs veh, ADSS / RFU, GK / Fold change vs veh, GK / RFU, ZNF148 / Fold change vs veh, ZNF148 / RFU, TAF9 / Fold change vs veh, TAF9 / RFU, SLC1A5 / Fold change vs veh, SLC1A5 / RFU, SLMO2 / Fold change vs veh, SLMO2 / RFU, ABCC4 / Fold change vs veh, ABCC4 / RFU, LOC101060439 /// RAP1B / Fold change vs veh, LOC101060439 /// RAP1B / RFU, RFX7 / Fold change vs veh, RFX7 / RFU, GTPBP10 / Fold change vs veh, GTPBP10 / RFU, CNEP1R1 / Fold change vs veh, CNEP1R1 / RFU, BIVM-ERCC5 /// ERCC5 / Fold change vs veh, BIVM-ERCC5 /// ERCC5 / RFU, ILF3 / Fold change vs veh, ILF3 / RFU 11762660_at / Fold change /veh 11762660_at / RFU VCAN (11757783_s_at) / Fold change /veh VCAN (11757783_s_at) / RFU DDX43 (11728927_at) / Fold change /veh DDX43 (11728927_at) / RFU KRT8 (11758188_x_at) / Fold change /veh KRT8 (11758188_x_at) / RFU NKD1 (11759106_at) / Fold change /veh NKD1 (11759106_at) / RFU SRD5A1 (11742802_a_at) / Fold change /veh SRD5A1 (11742802_a_at) / RFU TPSAB1 /// TPSB2 (11721975_s_at) / Fold change /veh TPSAB1 /// TPSB2 (11721975_s_at) / RFU GSTM3 (11746129_a_at) / Fold change /veh GSTM3 (11746129_a_at) / RFU IL23R (11737362_x_at) / Fold change /veh IL23R (11737362_x_at) / RFU TMEM51 (11727254_a_at) / Fold change /veh TMEM51 (11727254_a_at) / RFU PIWIL2 (11732686_x_at) / Fold change /veh PIWIL2 (11732686_x_at) / RFU ORM1 (11744905_x_at) / Fold change /veh ORM1 (11744905_x_at) / RFU CCDC152 (11743942_at) / Fold change /veh CCDC152 (11743942_at) / RFU ECM1 (11717891_a_at) / Fold change /veh ECM1 (11717891_a_at) / RFU IL23R (11748794_a_at) / Fold change /veh IL23R (11748794_a_at) / RFU TNFAIP8L3 (11732012_x_at) / Fold change /veh TNFAIP8L3 (11732012_x_at) / RFU MBOAT4 (11741988_at) / Fold change /veh MBOAT4 (11741988_at) / RFU 11764193_at / Fold change /veh 11764193_at / RFU TMEM53 (11763286_at) / Fold change /veh TMEM53 (11763286_at) / RFU MAGEB2 (11727129_at) / Fold change /veh MAGEB2 (11727129_at) / RFU TMEM200A (11744735_a_at) / Fold change /veh TMEM200A (11744735_a_at) / RFU CCDC152 (11751479_a_at) / Fold change /veh CCDC152 (11751479_a_at) / RFU FAM211A (11726209_a_at) / Fold change /veh FAM211A (11726209_a_at) / RFU RGS16 (11746705_a_at) / Fold change /veh RGS16 (11746705_a_at) / RFU VCAN (11755009_s_at) / Fold change /veh VCAN (11755009_s_at) / RFU RHOB (11743442_s_at) / Fold change /veh RHOB (11743442_s_at) / RFU RGS16 (11720943_a_at) / Fold change /veh RGS16 (11720943_a_at) / RFU RGS16 (11720944_at) / Fold change /veh RGS16 (11720944_at) / RFU, VPS4B / Fold change vs veh, VPS4B / RFU, CREB1 / Fold change vs veh, CREB1 / RFU, DNAJC13 / Fold change vs veh, DNAJC13 / RFU, GNAQ / Fold change vs veh, GNAQ / RFU, CDK5R1 / Fold change vs veh, CDK5R1 / RFU, ZRANB3 / Fold change vs veh, ZRANB3 / RFU, CUL4A / Fold change vs veh, CUL4A / RFU, CCNY / Fold change vs veh, CCNY / RFU, UFL1 / Fold change vs veh, UFL1 / RFU, COG3 / Fold change vs veh, COG3 / RFU, DIAPH2 / Fold change vs veh, DIAPH2 / RFU, SKA2 / Fold change vs veh, SKA2 / RFU, AFF3 / Fold change vs veh, AFF3 / RFU, LMF1 / Fold change vs veh, LMF1 / RFU, IPO11 / Fold change vs veh, IPO11 / RFU, DFFB / Fold change vs veh, DFFB / RFU, FOXP1 / Fold change vs veh, FOXP1 / RFU, CARD8 / Fold change vs veh, CARD8 / RFU, STRN3 / Fold change vs veh, STRN3 / RFU, ADK / Fold change vs veh, ADK / RFU, RASSF2 / Fold change vs veh, RASSF2 / RFU, WIPF1 / Fold change vs veh, WIPF1 / RFU, LARP1B / Fold change vs veh, LARP1B / RFU, RASA1 / Fold change vs veh, RASA1 / RFU, RB1 / Fold change vs veh, RB1 / RFU, PPFIA1 / Fold change vs veh, PPFIA1 / RFU, MAT2A / Fold change vs veh, MAT2A / RFU, CCT5 / Fold change vs veh, CCT5 / RFU, WDR92 / Fold change vs veh, WDR92 / RFU, CUX1 / Fold change vs veh, CUX1 / RFU, TTC7A / Fold change vs veh, TTC7A / RFU, TMEM135 / Fold change vs veh, TMEM135 / RFU, DEPTOR / Fold change vs veh, DEPTOR / RFU, CPM / Fold change vs veh, CPM / RFU, DNAJB6 / Fold change vs veh, DNAJB6 / RFU, CACNA2D3 / Fold change vs veh, CACNA2D3 / RFU, DTX4 / Fold change vs veh, DTX4 / RFU, TFCP2 / Fold change vs veh, TFCP2 / RFU, GMCL1 /// GMCL1P1 / Fold change vs veh, GMCL1 /// GMCL1P1 / RFU, AEBP2 / Fold change vs veh, AEBP2 / RFU, SNHG1 /// SNORD22 /// SNORD25 /// SNORD26 /// SNORD27 /// SNORD28 /// SNORD29 /// SNORD31 / Fold change vs veh, SNHG1 /// SNORD22 /// SNORD25 /// SNORD26 /// SNORD27 /// SNORD28 /// SNORD29 /// SNORD31 / Fold change (Aza/veh), C12orf56 (ProbeSet 11735607_a_at) / Fold change (ACY-1035/veh), C12orf56 (ProbeSet 11735607_a_at) / Fold change (Aza/veh), FGFR1OP (ProbeSet 11751329_s_at) / Fold change (ACY-1035/veh), FGFR1OP (ProbeSet 11751329_s_at) / Fold change (Aza/veh), VPS36 (ProbeSet 11739960_a_at) / Fold change (ACY-1035/veh), VPS36 (ProbeSet 11739960_a_at) / RFU SYPL1 (11715823_x_at) / Fold change /veh SYPL1 (11715823_x_at) / RFU IGFBP7 (11715501_s_at) / Fold change /veh IGFBP7 (11715501_s_at) / RFU REEP3 (11722064_at) / Fold change /veh REEP3 (11722064_at) / RFU IGLL1 (11728026_x_at) / Fold change /veh IGLL1 (11728026_x_at): dose or concentration left out as unconfirmed
Conditions: ProbeSet 11728271_at; LIST B

## Nc1ncn([C@@H]2O[C@H](CO)[C@@H](O)[C@H]2O)c(=O)n1 [azacitidine]
  RFU, ZNF330: 711.81 RFU
